In PubChem BioAssay (NCI):
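48-hour exposure; five concentrations; linearly interpolated endpoints. At the GI50, growth is halved. At the TGI there is no net growth.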

Experiments:
Assay in all cases: DTP human tumour cell line panel, 48 h
[1] = test system: UACC-62 melanoma
[2] = test system: NCI-H460 lung
[3] = test system: NCI/ADR-RES ovarian
[4] = test system: CAKI-1 renal
[5] = test system: SK-MEL-2 melanoma
[6] = test system: HS 578T breast
[7] = test system: RXF 393 renal
[8] = test system: A498 renal
[9] = test system: SK-MEL-28 melanoma
[10] = test system: SW-620 colon
[11] = test system: DU-145 prostate
[12] = test system: OVCAR-5 ovarian
[13] = test system: UO-31 renal
[14] = test system: SNB-75 CNS
[15] = test system: KM12 colon
[16] = test system: TK-10 renal
[17] = test system: A549 NSCLC
[18] = test system: HOP-92 NSCLC
[19] = test system: SK-MEL-5 melanoma
[20] = test system: OVCAR-8 ovarian
[21] = test system: SK-OV-3 ovarian
[22] = test system: OVCAR-4 ovarian
[23] = test system: OVCAR-3 ovarian

Cc1ccc(S(=O)(=O)OC[C@@]2(C)CC[C@]3(C)CC[C@]4(C)C(=CC[C@@H]5[C@@]6(C)CCCNC(C)(C)[C@@H]6CC[C@]54C)[C@@H]3C2)cc1
GI50 [1]: 1830 nM | TGI [1]: 3320 nM | GI50 [2]: 1360 nM | TGI [2]: 2850 nM | GI50 [3]: 2020 nM | TGI [3]: 4870 nM | GI50 [4]: 1600 nM | TGI [4]: 2940 nM | GI50 [5]: 1820 nM | TGI [5]: 3340 nM | GI50 [6]: 1860 nM | TGI [6]: 4000 nM | GI50 [7]: 1630 nM | TGI [7]: 3330 nM | GI50 [8]: 1660 nM | TGI [8]: 3160 nM | GI50 [9]: 1750 nM | TGI [9]: 3210 nM | GI50 [10]: 1320 nM | TGI [10]: 2820 nM | GI50 [11]: 1680 nM | TGI [11]: 3130 nM | GI50 [12]: 1740 nM | TGI [12]: 3200 nM | GI50 [13]: 1390 nM | TGI [13]: 2870 nM | GI50 [14]: 1590 nM | TGI [14]: 3100 nM | GI50 [15]: 1820 nM | TGI [15]: 3430 nM

Fc1ccc(-c2nc(Nc3ccc(-c4nc5ccccc5[nH]4)cc3)nc(N3CCOCC3)n2)cc1
GI50 [16]: 1960 nM | TGI [16]: 3420 nM | GI50 [4]: 1410 nM | TGI [4]: 2720 nM | GI50 [17]: 666 nM | TGI [17]: 2130 nM | GI50 [18]: 1300 nM | TGI [18]: 2700 nM | GI50 [6]: 700 nM | TGI [6]: 3020 nM | GI50 [19]: 1690 nM | TGI [19]: 3130 nM | GI50 [10]: 186 nM | TGI [10]: 372 nM | GI50 [20]: 1120 nM | TGI [20]: 2610 nM | GI50 [21]: 1840 nM | TGI [21]: 3280 nM | GI50 [22]: 1040 nM | TGI [22]: 2400 nM | GI50 [11]: 452 nM | TGI [11]: 1640 nM | GI50 [23]: 374 nM | TGI [23]: 1370 nM | GI50 [15]: 370 nM | TGI [15]: 1410 nM
